In patent EP4603105A1, “PHARMACEUTICAL COMPOSITION CONTAINING CYCLIC COMPOUND HAVING SELECTIVE KRAS INHIBITORY EFFECT AGAINST HRAS AND NRAS” (CHUGAI SEIYAKU KABUSHIKI KAISHA, priority 2022, dated 2024):
pIC50: −log10 of the molar value. *1 amine or outer side, *2 acyl side, *3 side chain or, on linkers, in order; H or OH if unused. Where a SMILES comes first, the peptide text is derived from it. Bridges are numbered along the chain shown (N, C = ends). [ ]: non-standard residue; d: D form. The star is where a group is joined. hPhe(3,5-F2-4-CF3) = N[C@@H](CCc1cc(F)c(C(F)(F)F)c(F)c1)C(=O)O; hPhe(3-Cl-4-CF3) = N[C@@H](CCc1ccc(C(F)(F)F)c(Cl)c1)C(=O)O; NPrPhe(4-CF3) = CCCN[C@@H](Cc1ccc(C(F)(F)F)cc1)C(=O)O; hPhe(3,4-Cl2) = N[C@@H](CCc1ccc(Cl)c(Cl)c1)C(=O)O; X15 = CCCN([C@@H](Cc1ccccc1)C(=O)[*:2])[*:1]; NMeGly(cPent) = CN[C@H](C(=O)O)C1CCCC1; Nva(3-Et) = CCC(CC)[C@H](N)C(=O)O; NMeD = CN[C@@H](CC(=O)O)C(=O)O; NMeL = CN[C@@H](CC(C)C)C(=O)O; Morpholide = C1CN(*)CCO1; NMeA = CN[C@@H](C)C(=O)O; Ac5c = NC1(C(=O)O)CCCC1; Aze = O=C(O)[C@@H]1CCN1; Sar = CNCC(=O)O

Tests used:
[1] = molecular target: GDP-bound NRAS wild-type protein (Homo sapiens, UniProt P01111); test: Binding to NRAS by surface plasmon resonance (SPR), KD and KD ratio to KRAS
Outline: (§1)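 GDP-loaded biotinylated Avi-tag RAS proteins (E. coli-expressed) captured on a Biotin CAPture chip at ~100–300 RU; single-cycle kinetics at 30°C, 100 µL/min, 75 s injections of rising compound concentrations. HBS pH 7.4 running buffer with 1 mM DTT, 10 mM MgCl2, 10 µM GDP, 4% DMSO. KD from 1:1 binding fit.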

[2] = molecular target: HRAS wild-type protein (Homo sapiens, UniProt P01112); test: Binding to HRAS by surface plasmon resonance (SPR), KD and KD ratio to KRAS
Outline: as §1

[3] = tested on: human lung cancer strain NCI-H441; type: cell-based
Outline: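 Readout: […] after the ATP-based reagent. Compound: serial dilutions in dimethyl sulfoxide.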

[4] = ratio of the KD value with respect to GDP-bound NRAS wild-type protein to the KD value with respect to KRAS
[5] = ratio of the KD value with respect to HRAS wild-type protein to the KD value with respect to KRAS
[6] = ratio of KD for GDP-bound NRAS wild-type protein to KD for KRAS
[7] = ratio of KD for HRAS wild-type protein to KD for KRAS

Sequence of HRAS wild-type protein (P01112 whole entry): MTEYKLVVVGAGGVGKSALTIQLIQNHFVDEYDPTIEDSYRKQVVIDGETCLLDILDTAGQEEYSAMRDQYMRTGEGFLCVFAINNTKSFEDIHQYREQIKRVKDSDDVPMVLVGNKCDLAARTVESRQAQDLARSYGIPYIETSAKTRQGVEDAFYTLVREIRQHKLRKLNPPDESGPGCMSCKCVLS
Sequence of GDP-bound NRAS wild-type protein (P01111 whole entry): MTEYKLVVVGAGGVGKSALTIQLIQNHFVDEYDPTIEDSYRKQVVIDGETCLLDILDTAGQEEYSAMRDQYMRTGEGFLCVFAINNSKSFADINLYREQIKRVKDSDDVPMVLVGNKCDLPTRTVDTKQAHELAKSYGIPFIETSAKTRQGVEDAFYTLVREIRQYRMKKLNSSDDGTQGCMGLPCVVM

| pIC50 [3] | Structure (SMILES) | NRAS /KRAS [1, 4] | HRAS /KRAS [2, 5] | NRAS /KRAS [1, 6] | HRAS /KRAS [2, 7] | NRAS /KRAS ([1]; ratio of KD value for GDP-bound NRAS wild-type protein to KD value for KRAS (SPR)) | HRAS /KRAS ([2]; ratio of KD value for HRAS wild-type protein to KD value for KRAS (SPR)) |
| --- | --- | --- | --- | --- | --- | --- | --- |
| 7.90 | CC[C@H](C)[C@@H]1NC(=O)[C@@H]2CCC/C=C/c3ccc(cc3)C[C@@H](C(=O)N(C)CC(=O)N[C@@H](CCc3ccc(Cl)c(Cl)c3)C(=O)N3C[C@H](OC(C)C)C[C@H]3C(=O)NC3(CC(C)(C)C3)C(=O)N(C)[C@@H](C3CCCC3)C(=O)N(C)[C@H](C(=O)N(C)CC)CC(=O)N2C)N2CC/C=C\C[C@@H](C2=O)N(C)C(=O)CN(C)C1=O [PP2595] | – | – | A (a compound having 10 or more and less than 20 is denoted as A) | B (a compound having 3 or more and less than 10 is denoted as B) | – | – |
| 7.71 | CCO[C@@H]1C[C@H]2C(=O)NC3(CC(C)(C)C3)C(=O)N(C)[C@@H](C(CC)CC)C(=O)N(C)[C@H](C(=O)N3CCCC3)CC(=O)N(C)[C@@H](COC)C(=O)N[C@@H]([C@@H](C)CC)C(=O)N(C)CC(=O)N(C)[C@H]3C/C=C\CCN(C3=O)[C@@H](Cc3ccc(C(F)(F)F)cc3)C(=O)N(C)CC(=O)N[C@@H](CCc3ccc(C(F)(F)F)c(OC)c3)C(=O)N2C1 [PP2159] | AA (a compound having 20 or more is denoted as AA) | A (a compound having 10 or more and less than 20 is denoted as A) | – | – | – | – |
| 8.80 | CCO[C@@H]1C[C@H]2C(=O)NC3(CC(C)(C)C3)C(=O)N(C)[C@@H](C3CCCC3)C(=O)N(C)[C@H](C(=O)N(C)CC)CC(=O)N(C)[C@@H](CC(F)F)C(=O)N[C@@H]([C@@H](C)CC)C(=O)N(C)CC(=O)N(C)[C@H]3C/C=C\CCN(C3=O)[C@@H](Cc3ccc(C(F)(F)F)cc3)C(=O)N(C)CC(=O)N[C@@H](CCc3cc(F)c(C(F)(F)F)c(F)c3)C(=O)N2C1 [PP1643] | – | – | – | – | A (a compound having 10 or more and less than 20 is denoted as A) | A (a compound having 10 or more and less than 20 is denoted as A) |

The next lines start with the compound.

| Structure (SMILES) | pIC50 [3] | NRAS /KRAS [1, 4] | HRAS /KRAS [2, 5] | NRAS /KRAS [1, 6] | HRAS /KRAS [2, 7] | NRAS /KRAS ([1]; ratio of KD value for GDP-bound NRAS wild-type protein to KD value for KRAS (SPR)) | HRAS /KRAS ([2]; ratio of KD value for HRAS wild-type protein to KD value for KRAS (SPR)) |
| --- | --- | --- | --- | --- | --- | --- | --- |
| CCCN1C(=O)CN(C)C(=O)CN(C)C(=O)[C@H](C(CC)CC)NC(=O)[C@H](CC(C)C)N(C)C(=O)C[C@@H](C(=O)N(C)C)N(C)C(=O)[C@H](C2CCCC2)N(C)C(=O)C2(CCCC2)NC(=O)[C@@H]2CCCN2C(=O)[C@H](CCc2cc(F)c(C(F)(F)F)c(F)c2)NC(=O)CN(C)C(=O)[C@@H]1Cc1ccc(C(F)(F)F)cc1 [PP0747] ([NMeL][Nva(3-Et)][Sar][Sar][NPrPhe(4-CF3)][Sar][hPhe(3,5-F2-4-CF3)]P[Ac5c][NMeGly(cPent)][NMeD]-NMe2; lactam N-11) | 7.34 | B (a compound having 3 or more and less than 10 is denoted as B) | C (A compound having a KD ratio of 0.1 or more and less than 3 is denoted as C) | – | – | – | – |
| CCO[C@@H]1C[C@H]2C(=O)NC3(CC(C)(C)C3)C(=O)N(C)[C@@H](C(CC)CC)C(=O)N(C)[C@H](C(=O)N3CCCCC3)CC(=O)N(C)[C@H]3CCC/C=C/c4ccc(cc4)C[C@@H](C(=O)N(C)CC(=O)N[C@@H](CCc4cc(F)c(C(F)(F)F)c(F)c4)C(=O)N2C1)N1CC/C=C\C[C@@H](C1=O)N(C)C(=O)CN(C)C(=O)[C@H]([C@@H](C)CC)NC3=O [PP2952] | 7.35 | – | – | AA (a compound having 20 or more is denoted as AA) | A (a compound having 10 or more and less than 20 is denoted as A) | – | – |
| CCCN1C(=O)[C@@H]2CCN2C(=O)[C@H](C)N(C)C(=O)[C@H]([C@@H](C)CC)NC(=O)[C@H](CC(C)C)N(C)C(=O)C[C@@H](C(=O)N2CCOCC2)N(C)C(=O)[C@H](C2CCCC2)N(C)C(=O)C2(CCCC2)NC(=O)[C@@H]2CCCN2C(=O)[C@H](CCc2ccc(Cl)c(Cl)c2)NC(=O)CN(C)C(=O)[C@@H]1Cc1ccc(C(F)(F)F)cc1 [PP0227] ([NMeL]I[NMeA][Aze][NPrPhe(4-CF3)][Sar][hPhe(3,4-Cl2)]P[Ac5c][NMeGly(cPent)][NMeD]-Morpholide; lactam N-11) | 8.39 | – | – | C (A compound having a KD ratio of 0.1 or more and less than 3 is denoted as C) | B (a compound having 3 or more and less than 10 is denoted as B) | – | – |
| CCCN1C(=O)CN(C)C(=O)CN(C)C(=O)[C@H]([C@@H](C)CC)NC(=O)[C@H](CC(C)C)N(C)C(=O)C[C@@H](C(=O)N2CCOCC2)N(C)C(=O)[C@H](C2CCCC2)N(C)C(=O)C2(CCCC2)NC(=O)[C@@H]2CCCN2C(=O)[C@H](CCc2ccc(C(F)(F)F)c(Cl)c2)NC(=O)CN(C)C(=O)[C@@H]1Cc1ccccc1 [PP0211] ([NMeL]I[Sar][Sar][X15][Sar][hPhe(3-Cl-4-CF3)]P[Ac5c][NMeGly(cPent)][NMeD]-Morpholide; lactam N-11) | 7.97 | – | – | B (a compound having 3 or more and less than 10 is denoted as B) | C (A compound having a KD ratio of 0.1 or more and less than 3 is denoted as C) | – | – |
